These results are taken from US10246422B2, “Heterocyclic compounds and use thereof in medicine and in cosmetics” (GALDERMA RESEARCH & DEVELOPMENT, priority 2014, dated 2019).

The data set can be described thus: Metabolic stability in the presence of human hepatic microsomes. Format: in vitro ADME. The settings on record: compound 1 μM (DMSO 0.1%), microsomal protein 0.5 mg/mL, LC/MS/MS. The method, then:
This is illustrated more particularly by the test of metabolic stability in the presence of human hepatic microsomes presented below.
Human hepatic microsomes (Becton Dickinson) are incubated at a protein concentration of 0.5 mg/mL in the reaction mixture.
The reaction mixture of the microsomes consists of phosphate buffer pH: 7.4 at 100 mM, MgCl2 at 100 mM (50/50), a system for generating […] consisting of a mixture of nicotinamide adenine […] (NADP), glucose-6-phosphate (G6P) at 1 mg/mL and glucose-6-phosphate dehydrogenase (G6PDH) at 4 U/mL. The compounds are tested at 1 μM (DMSO 0.1%).
The samples are taken from the incubation medium after adding the microsomes, at time 15 minutes. The metabolic reaction is stopped by adding methanol (1 volume incubation medium/3 volumes of methanol). The percentage of the parent product remaining after 15 minutes is measured by LC/MS/MS analysis.
As for `COc1c(C)cccc1-c1cn(CC(=O)N2CCC(N3CCc4ccccc4NC3=O)CC2)c(=O)n(C)c1=O` [Compound 25, 5-(2-methoxy-3-methylphenyl)-3-methyl-1-{2-oxo-2-[4-(2-oxo-1,2,4,5-tetrahydro-benzo[d][1,3]diazepin-3-yl)-piperidin-1-yl]-ethyl}-1H-pyrimidine-2,4-dione], the “% of product remaining at 15 min (human hepatic microsomes)” value (shortened to “% of product remaining at 15 min”) is reported as 8%.
The figure for `Cc1cccc(-c2cn(CC(=O)N3CCC(N4CCc5ccccc5NC4=O)CC3)c(=O)n(C)c2=O)c1C` [Compound 30, 5-(2,3-dimethylphenyl)-3-methyl-1-{2-oxo-2-[4-(2-oxo-1,2,4,5-tetrahydro-benzo[d][1,3]diazepin-3-yl)-piperidin-1-yl]-ethyl}-1H-pyrimidine-2,4-dione] is 16%.
Consider `CC(C)n1c(=O)c(-c2cccc(F)c2Cl)cn(CC(=O)N2CCC(N3CCc4ccccc4NC3=O)CC2)c1=O` [Compound 63, 5-(2-chloro-3-fluorophenyl)-3-isopropyl-1-{2-oxo-2-[4-(2-oxo-1,2,4,5-tetrahydro-benzo[d][1,3]diazepin-3-yl)-piperidin-1-yl]-ethyl}-1H-pyrimidine-2,4-dione], for which the “% of product remaining at 15 min” value worked out at 45%.
Consider `COC[C@@H](C)n1c(=O)c(-c2cccc(F)c2Cl)cn(CC(=O)N2CCC(N3CCc4ccccc4NC3=O)CC2)c1=O` [Compound 110, 5-(2-chloro-3-fluorophenyl)-3-((R)-2-methoxy-1-methylethyl)-1-{2-oxo-2-[4-(2-oxo-1,2,4,5-tetrahydro-benzo[d][1,3]diazepin-3-yl)-piperidin-1-yl]-ethyl}-1H-pyrimidine-2,4-dione], for which the “% of product remaining at 15 min” value was 1%.
With `CSCCn1c(=O)c(-c2cccc(F)c2Cl)cn(CC(=O)N2CCC(N3CCc4ccccc4NC3=O)CC2)c1=O` [Compound 112, 5-(2-chloro-3-fluorophenyl)-3-(2-methylsulphanyl-ethyl)-1-{2-oxo-2-[4-(2-oxo-1,2,4,5-tetrahydro-benzo[d][1,3]diazepin-3-yl)-piperidin-1-yl]-ethyl}-1H-pyrimidine-2,4-dione], the “% of product remaining at 15 min” value was determined as 0%.
The figure for `COC(=O)CCn1c(=O)c(-c2cccc(F)c2Cl)cn(CC(=O)N2CCC(N3CCc4ccccc4NC3=O)CC2)c1=O` [Compound 114, 3-(5-(2-chloro-3-fluorophenyl)-2,6-dioxo-3-{2-oxo-2-[4-(2-oxo-1,2,4,5-tetrahydro-benzo[d][1,3]diazepin-3-yl)-piperidin-1-yl]-ethyl}-3,6-dihydro-2H-pyrimidin-1-yl)-methyl propionate] is 41%.
As for `COc1ccc2c(c1)CCN(C1CCN(C(=O)Cn3cc(-c4cccc(F)c4Cl)c(=O)n([C@@H](C)CNC(C)=O)c3=O)CC1)C(=O)N2` [Compound 115, N—[(S)-2-(5-(2-chloro-3-fluorophenyl)-3-{2-[4-(7-methoxy-2-oxo-1,2,4,5-tetrahydro-benzo[d][1,3]diazepin-3-yl)-piperidin-1-yl]-2-oxo-ethyl}-2,6-dioxo-3,6-dihydro-2H-pyrimidin-1-yl)-propyl]acetamide], the “% of product remaining at 15 min” value turned out to be 0%.
Regarding `COc1ccc2c(c1)CCN(C1CCN(C(=O)Cn3cc(-c4cccc(F)c4Cl)c(=O)n([C@@H](C)CNS(C)(=O)=O)c3=O)CC1)C(=O)N2` [Compound 120, N—[(S)-2-(5-(2-chloro-3-fluorophenyl)-3-{2-[4-(7-methoxy-2-oxo-1,2,4,5-tetrahydro-benzo[d][1,3]diazepin-3-yl)-piperidin-1-yl]-2-oxo-ethyl}-2,6-dioxo-3,6-dihydro-2H-pyrimidin-1-yl)-propyl]-methanesulphonamide], the “% of product remaining at 15 min” value was determined as 1%.
The figure for `COc1ccc2c(c1)CCN(C1CCN(C(=O)Cn3cc(-c4cccc(F)c4Cl)c(=O)n([C@@H](C)CS(C)(=O)=O)c3=O)CC1)C(=O)N2` [Compound 142, 5-(2-chloro-3-fluorophenyl)-3-((S)-2-methanesulphonyl-1-methylethyl)-1-{2-[4-(7-methoxy-2-oxo-1,2,4,5-tetrahydro-benzo[d][1,3]diazepin-3-yl)-piperidin-1-yl]-2-oxo-ethyl}-1H-pyrimidine-2,4-dione] is 65%; for `COc1ccc2c(c1)CCN(C1CCN(C(=O)Cn3cc(-c4cccc(F)c4Cl)c(=O)n([C@H](C)CS(C)(=O)=O)c3=O)CC1)C(=O)N2` [Compound 143, 5-(2-chloro-3-fluorophenyl)-3-((R)-2-methanesulphonyl-1-methylethyl)-1-{2-[4-(7-methoxy-2-oxo-1,2,4,5-tetrahydro-benzo[d][1,3]diazepin-3-yl)-piperidin-1-yl]-2-oxo-ethyl}-1H-pyrimidine-2,4-dione] it is 42%; for `COc1ccc2c(c1)CCN(C1CCN(C(=O)Cn3cc(-c4cccc(OC)c4F)c(=O)n(C(C)C)c3=O)CC1)C(=O)N2` [Compound 149, 5-(2-fluoro-3-methoxyphenyl)-3-isopropyl-1-{2-[4-(7-methoxy-2-oxo-1,2,4,5-tetrahydro-benzo[d][1,3]diazepin-3-yl)-piperidin-1-yl]-2-oxo-ethyl}-1H-pyrimidine-2,4-dione] it is 26%.
On to `COc1ccc2c(c1)CCN(C1CCN(C(=O)Cn3cc(-c4ccccc4OC(F)(F)F)c(=O)n(C(C)C)c3=O)CC1)C(=O)N2` [Compound 150, 3-isopropyl-1-{2-[4-(7-methoxy-2-oxo-1,2,4,5-tetrahydro-benzo[d][1,3]diazepin-3-yl)-piperidin-1-yl]-2-oxo-ethyl}-5-(2-trifluoromethoxyphenyl)-1H-pyrimidine-2,4-dione], for which the “% of product remaining at 15 min” value was 0%.
`CCC(=O)NC[C@H](C)n1c(=O)c(-c2cccc(F)c2Cl)cn(CC(=O)N2CCC(N3CCc4cc(OC)ccc4NC3=O)CC2)c1=O` [Compound 158, N—[(S)-2-(5-(2-chloro-3-fluorophenyl)-3-{2-[4-(7-methoxy-2-oxo-1,2,4,5-tetrahydro-benzo[d][1,3]diazepin-3-yl)-piperidin-1-yl]-2-oxo-ethyl}-2,6-dioxo-3,6-dihydro-2H-pyrimidin-1-yl)-propyl]-propionamide]: the “% of product remaining at 15 min” value worked out at 0%.
The figure for `COC[C@H](C)n1c(=O)c(-c2cccc(F)c2Cl)cn(CC(=O)Nc2ccc3c(c2)C[C@@]2(C3)C(=O)Nc3ncccc32)c1=O` [Compound 165] is 0%.
To `COc1cccc(C2=CN(CC(=O)N3CCC(N4CCc5ccccc5NC4=O)CC3)C(=O)N(C(C)C)C2)c1Cl` [Compound 193, 3-(1-{2-[5-(2-chloro-3-methoxyphenyl)-3-isopropyl-2-oxo-3,4-dihydro-2H-pyrimidin-1-yl]-acetyl}-piperidin-4-yl)-1,3,4,5-tetrahydro-benzo[d][1,3]diazepin-2-one] belongs 18%; to `COc1ccc2c(c1)CCN(C1CCN(C(=O)Cn3cc(-c4cccc(OC)c4Cl)c(=O)n([C@@H](C)CNC(C)=O)c3=O)CC1)C(=O)N2` [Compound 206, N—[(S)-2-(5-(2-chloro-3-methoxyphenyl)-3-{2-[4-(7-methoxy-2-oxo-1,2,4,5-tetrahydro-benzo[d][1,3]diazepin-3-yl)-piperidin-1-yl]-2-oxo-ethyl}-2,6-dioxo-3,6-dihydro-2H-pyrimidin-1-yl)-propyl]acetamide], 1%.
